Laboratory results reported in paper PMC6320863, “Interaction of Chrysin and Its Main Conjugated Metabolites Chrysin-7-Sulfate and Chrysin-7-Glucuronide with Serum Albumin” (International Journal of Molecular Sciences, 2018).

System: T1, ochratoxin A–HSA complex
T1 construct: purchased Sigma-Aldrich
Experiment: Fluorescence anisotropy of ochratoxin A–HSA complex
Type: binding, human
Settings: 1.0 µmol/L ochratoxin A, 1.5 µmol/L HSA, flavonoid 2.5–30 μM, PBS pH 7.4, λex 393 nm, λem 446 nm

Row | SMILES | Fluorescence anisotropy of ochratoxin A
1 | O=c1cc(-c2ccccc2)oc2cc(O)cc(O)c12 [Chrysin, 5,7-dihydroxyflavone] | failed to affect
2 | O=C(O)C1OC(Oc2cc(O)c3c(=O)cc(-c4ccccc4)oc3c2)C(O)C(O)C1O (stereo not drawn) [Chrysin-7-glucuronide, chrysin-7-glucuronide] | failed to affect
3 | O=c1cc(-c2ccccc2)oc2cc(OS(=O)(=O)O)cc(O)c12 [Chrysin-7-sulfate, chrysin-7-sulfate] | concentration-dependent decrease
